Here are results for 68 sequences from the supplement of paper PMC11208160.

The nature of the data set: recombinant UMI read abundance after kanamycin selection (control-corrected) (log10(CPM+1)); higher = more efficient recombination; extreme values may be limits of the assay; sequences stand for … in AGTGCAGAGAAAATCGGCCAGTTTTCTCTGCCTGCAGTCCGCATGCCGTGGGACCCCTTGGGTTCTAACCTGTTGCCTAGATTTATGCAGCGGACTGCCTTTCTCCCAAAGTGATAAACCGG…AGGTTGGTTTCACT; site = the 11-nt donor. The method, boiled down:
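In a pooled Escherichia coli screen for the IS621 bridge recombinase, donor and donor-binding-loop pairs were each placed with a 12-nt UMI on a plasmid bearing a promoterless kanamycin gene. This library was co-electroporated with a target plasmid encoding a fixed target and T7-inducible recombinase, and cells were plated either on IPTG (0.07 mM) plus kanamycin or without selection, in two replicates each. Recombinant UMIs were PCR-amplified across the donor–target junction and sequenced, and counts were converted to CPM, averaged over replicates, scaled by control-derived factors and reported as log10(CPM+1).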
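Note: IS621 bridge recombinase in Escherichia coli cells against a fixed T5 target plasmid.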

Consider “CGGGATTCATGGACCGGTTTTCCCGGTAATCCGTATTTGCC (site CGGGACTCTGG)”, for which the “recombinant UMI read abundance (log10)” value was determined as 2.97.
In the case of “CGGGATTCATGGACCGGTTTTCCCGGTAATCCGTATTTGCC (site CGGGAGTCTGG)”, the “recombinant UMI read abundance (log10)” value was found to be 1.18.
On to “CGGGATTCATGGACCGGTTTTCCCGGTAATCCGTATTTGCC (site CGGGATTCTGG)”, for which the “recombinant UMI read abundance (log10)” value stood at 2.58.
To “CGGGATTCATGGACCGGTTTTCCCGGTAATCCGTATTTGTT (site CGGAATCCTAA)” belongs 0.
As to “CGGGATTCATGGACCGGTTTTCCCGGTAATCCGTATTTGTT (site CGGGATTCTAA)”, the “recombinant UMI read abundance (log10)” value is 2.91.
For “CGGGGTACATGGACCGGTTTTCCCGGTAATCCGTATTTGTA (site CGGGGTACTTA)”, the “recombinant UMI read abundance (log10)” value is 2.49.
As for “CGGGGTGCATGGACCGGTTTTCCCGGTAATCCGTATTTGGT (site CGGGGTGCTAC)”, the “recombinant UMI read abundance (log10)” value is 1.25.
“CGGGTCACATGGACCGGTTTTCCCGGTAATCCGTATTTGTC (site CGGGTCACTGA)”: the “recombinant UMI read abundance (log10)” value stood at 3.01.
As to “CGGGTTCCATGGACCGGTTTTCCCGGTAATCCGTATTTGAC (site CGGGTTCCTGT)”, the “recombinant UMI read abundance (log10)” value came out at 0.77.
Regarding “CGGTAGTCATGGACCGGTTTTCCCGGTAATCCGTATTTGCC (site CGGAAGTCTGG)”, the “recombinant UMI read abundance (log10)” value amounted to 0.759.
Regarding “CGGTAGTCATGGACCGGTTTTCCCGGTAATCCGTATTTGCC (site CGGCAGTCTGG)”, the “recombinant UMI read abundance (log10)” value was found to be 1.47.
To “CGGTAGTCATGGACCGGTTTTCCCGGTAATCCGTATTTGCC (site CGGGAGTCTGG)” belongs 0; to “CGGTAGTCATGGACCGGTTTTCCCGGTAATCCGTATTTGCC (site CGGTAGTCTGG)”, 2.78; to “CGGTATACATGGACCGGTTTTCCCGGTAATCCGTATTTGTT (site CGGAATCCTAA)”, 0.
Take “CGGTATACATGGACCGGTTTTCCCGGTAATCCGTATTTGTT (site CGGTATACTAA)”: the “recombinant UMI read abundance (log10)” value is 1.62.
Consider “CGGTATCCATGGACCGGTTTTCCCGGTAATCCGTATTTGAT (site CGGAATCCTAA)”, for which the “recombinant UMI read abundance (log10)” value came to 0.00344.
As for “CGGTATCCATGGACCGGTTTTCCCGGTAATCCGTATTTGAT (site CGGTATCCTAT)”, the “recombinant UMI read abundance (log10)” value amounted to 0.734.
The figure for “CGGTATCCATGGACCGGTTTTCCCGGTAATCCGTATTTGCC (site CGGTATCCTGG)” is 0.
Turning to “CGGTCATCATGGACCGGTTTTCCCGGTAATCCGTATTTGTT (site CGATCATCTAG)”, the “recombinant UMI read abundance (log10)” value stood at 0.
For the sequence “CGGTCATCATGGACCGGTTTTCCCGGTAATCCGTATTTGTT (site CGGTCATCTAA)”, the “recombinant UMI read abundance (log10)” value is 0.27.
For the sequence “CGGTCGACATGGACCGGTTTTCCCGGTAATCCGTATTTGGA (site CGGTCGACTTC)”, the “recombinant UMI read abundance (log10)” value turned out to be 0.112.
The figure for “CGGTGCGCATGGACCGGTTTTCCCGGTAATCCGTATTTGCC (site CGGTGCGCTGG)” is 1.48; for “CGGTGTCCATGGACCGGTTTTCCCGGTAATCCGTATTTGTT (site CGGAATCCTAA)” it is 0.0121; for “CGGTGTCCATGGACCGGTTTTCCCGGTAATCCGTATTTGTT (site CGGTGTCCTAA)” it is 0.0166.
As for “CGGTTAGCATGGACCGGTTTTCCCGGTAATCCGTATTTGTG (site CAGTTAGCTCA)”, the “recombinant UMI read abundance (log10)” value came to 0.694.
Turning to “CGGTTAGCATGGACCGGTTTTCCCGGTAATCCGTATTTGTG (site CCGTTAGCTCA)”, the “recombinant UMI read abundance (log10)” value turned out to be 0.
To “CGGTTAGCATGGACCGGTTTTCCCGGTAATCCGTATTTGTG (site CGGTTAGCTCA)” belongs 1.7.
Consider “CGGTTAGCATGGACCGGTTTTCCCGGTAATCCGTATTTGTG (site CTGTTAGCTCA)”, for which the “recombinant UMI read abundance (log10)” value came out at 0.256.
Consider “CGTACAACATGGACCGGTTTTCCCGGTAATCCGTATTTGGT (site CGTACAACTAC)”, for which the “recombinant UMI read abundance (log10)” value was found to be 1.09.
Consider “CGTAGCGCATGGACCGGTTTTCCCGGTAATCCGTATTTGTT (site CGTAGCGCTAA)”, for which the “recombinant UMI read abundance (log10)” value came to 1.05.
For “CGTCAGACATGGACCGGTTTTCCCGGTAATCCGTATTTGAG (site CGTAAGACTCT)”, the “recombinant UMI read abundance (log10)” value amounted to 0.182.
In the case of “CGTCAGACATGGACCGGTTTTCCCGGTAATCCGTATTTGAG (site CGTCAGACTCT)”, the “recombinant UMI read abundance (log10)” value stood at 1.16.
On to “CGTCAGACATGGACCGGTTTTCCCGGTAATCCGTATTTGAG (site CGTGAGACTCT)”, for which the “recombinant UMI read abundance (log10)” value came to 0.016.
Turning to “CGTCAGACATGGACCGGTTTTCCCGGTAATCCGTATTTGAG (site CGTTAGACTCT)”, the “recombinant UMI read abundance (log10)” value is 0.0174.
Regarding “CGTCGACCATGGACCGGTTTTCCCGGTAATCCGTATTTGAT (site CGTCGACCTAT)”, the “recombinant UMI read abundance (log10)” value is 0.0862.
On to “CGTCGTACATGGACCGGTTTTCCCGGTAATCCGTATTTGCT (site CGACGTACTAG)”, for which the “recombinant UMI read abundance (log10)” value amounted to 0.689.
For “CGTCGTACATGGACCGGTTTTCCCGGTAATCCGTATTTGCT (site CGCCGTACTAG)”, the “recombinant UMI read abundance (log10)” value came to 1.22.
On to “CGTCGTACATGGACCGGTTTTCCCGGTAATCCGTATTTGCT (site CGGCGTACTAG)”, for which the “recombinant UMI read abundance (log10)” value is 0.794.
“CGTCGTACATGGACCGGTTTTCCCGGTAATCCGTATTTGCT (site CGTCGTACTAG)”: the “recombinant UMI read abundance (log10)” value turned out to be 1.76.
“CGTCTCCCATGGACCGGTTTTCCCGGTAATCCGTATTTGAG (site CGTCTCCCTCT)”: the “recombinant UMI read abundance (log10)” value stood at 0.0129.
Consider “CGTGAACCATGGACCGGTTTTCCCGGTAATCCGTATTTGAT (site CGAGAACCTAT)”, for which the “recombinant UMI read abundance (log10)” value amounted to 0.0201.
Turning to “CGTGAACCATGGACCGGTTTTCCCGGTAATCCGTATTTGAT (site CGCGAACCTAT)”, the “recombinant UMI read abundance (log10)” value turned out to be 0.
Turning to “CGTGAACCATGGACCGGTTTTCCCGGTAATCCGTATTTGAT (site CGGGAACCTAT)”, the “recombinant UMI read abundance (log10)” value worked out at 0.
In the case of “CGTGAACCATGGACCGGTTTTCCCGGTAATCCGTATTTGAT (site CGTGAACCTAT)”, the “recombinant UMI read abundance (log10)” value is 0.0133.
With “CGTGACTCATGGACCGGTTTTCCCGGTAATCCGTATTTGCG (site CGTGACTCTCG)”, the “recombinant UMI read abundance (log10)” value is 2.74.
On to “CGTGACTCATGGACCGGTTTTCCCGGTAATCCGTATTTGTA (site CGTGACTCTTA)”, for which the “recombinant UMI read abundance (log10)” value came to 3.02.
In the case of “CGTGAGTCATGGACCGGTTTTCCCGGTAATCCGTATTTGCC (site CGAGAGTCTGG)”, the “recombinant UMI read abundance (log10)” value amounted to 1.79.
Take “CGTGAGTCATGGACCGGTTTTCCCGGTAATCCGTATTTGCC (site CGCGAGTCTGG)”: the “recombinant UMI read abundance (log10)” value came to 0.
For the sequence “CGTGAGTCATGGACCGGTTTTCCCGGTAATCCGTATTTGCC (site CGGGAGTCTGG)”, the “recombinant UMI read abundance (log10)” value came to 0.694.
The figure for “CGTGAGTCATGGACCGGTTTTCCCGGTAATCCGTATTTGCC (site CGTGAGTCTGG)” is 1.97.
Regarding “CGTGAGTCATGGACCGGTTTTCCCGGTAATCCGTATTTGCG (site CGTGAGTCTCG)”, the “recombinant UMI read abundance (log10)” value was found to be 2.58.
With “CGTGCGGCATGGACCGGTTTTCCCGGTAATCCGTATTTGGA (site CGTGCGGCTTC)”, the “recombinant UMI read abundance (log10)” value came to 0.167.
Consider “CGTGCGTCATGGACCGGTTTTCCCGGTAATCCGTATTTGTA (site CGTGCGTCTTA)”, for which the “recombinant UMI read abundance (log10)” value amounted to 2.34.
Regarding “CGTGGAACATGGACCGGTTTTCCCGGTAATCCGTATTTGGT (site CGTGGAACTAA)”, the “recombinant UMI read abundance (log10)” value was found to be 0.427.
To “CGTGGAACATGGACCGGTTTTCCCGGTAATCCGTATTTGGT (site CGTGGAACTAC)” belongs 1.33.
Regarding “CGTGGAACATGGACCGGTTTTCCCGGTAATCCGTATTTGGT (site CGTGGAACTAG)”, the “recombinant UMI read abundance (log10)” value is 0.
The figure for “CGTGGAACATGGACCGGTTTTCCCGGTAATCCGTATTTGGT (site CGTGGAACTAT)” is 1.26; for “CGTGGCACATGGACCGGTTTTCCCGGTAATCCGTATTTGTT (site CGTGGAACTAA)” it is 0.00865; for “CGTGGCACATGGACCGGTTTTCCCGGTAATCCGTATTTGTT (site CGTGGCACTAA)” it is 0.862.
Consider “CGTGGCACATGGACCGGTTTTCCCGGTAATCCGTATTTGTT (site CGTGGGACTAA)”, for which the “recombinant UMI read abundance (log10)” value was determined as 0.00775.
In the case of “CGTGGCACATGGACCGGTTTTCCCGGTAATCCGTATTTGTT (site CGTGGTACTAA)”, the “recombinant UMI read abundance (log10)” value came out at 0.0209.
With “CGTGTAACATGGACCGGTTTTCCCGGTAATCCGTATTTGTT (site CGTGAAACTAA)”, the “recombinant UMI read abundance (log10)” value came to 0.00395.
For “CGTGTAACATGGACCGGTTTTCCCGGTAATCCGTATTTGTT (site CGTGCAACTAA)”, the “recombinant UMI read abundance (log10)” value turned out to be 0.015.
With “CGTGTAACATGGACCGGTTTTCCCGGTAATCCGTATTTGTT (site CGTGGAACTAA)”, the “recombinant UMI read abundance (log10)” value amounted to 0.0109.
As for “CGTGTAACATGGACCGGTTTTCCCGGTAATCCGTATTTGTT (site CGTGTAACTAA)”, the “recombinant UMI read abundance (log10)” value was 0.811.
Consider “CGTTAAGCATGGACCGGTTTTCCCGGTAATCCGTATTTGGC (site CGTTAAGCTGC)”, for which the “recombinant UMI read abundance (log10)” value came to 1.73.
As to “CGTTACCCATGGACCGGTTTTCCCGGTAATCCGTATTTGCG (site CGTTACCCTCG)”, the “recombinant UMI read abundance (log10)” value came to 0.477.
For the sequence “CGTTAGACATGGACCGGTTTTCCCGGTAATCCGTATTTGAT (site CGTTAGACTAT)”, the “recombinant UMI read abundance (log10)” value was 1.58.
